Test results reported in ChEMBL document CHEMBL1134625 (J Med Chem, 2001).

Tests used:
[1] = molecular target: T1, 5-hydroxytryptamine receptor 1A (Homo sapiens, UniProt P08908)
T1 sequence (P08908 whole entry): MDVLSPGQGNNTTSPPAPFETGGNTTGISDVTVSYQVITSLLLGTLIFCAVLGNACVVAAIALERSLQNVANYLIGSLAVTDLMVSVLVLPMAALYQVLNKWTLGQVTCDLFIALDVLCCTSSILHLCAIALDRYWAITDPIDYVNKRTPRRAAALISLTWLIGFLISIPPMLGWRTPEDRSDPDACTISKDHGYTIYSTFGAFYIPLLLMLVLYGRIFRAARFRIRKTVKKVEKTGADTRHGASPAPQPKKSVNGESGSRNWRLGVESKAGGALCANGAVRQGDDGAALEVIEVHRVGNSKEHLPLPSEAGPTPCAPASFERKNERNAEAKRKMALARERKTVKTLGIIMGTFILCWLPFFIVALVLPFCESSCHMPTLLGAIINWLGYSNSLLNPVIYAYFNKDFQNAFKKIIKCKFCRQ

Adenosine receptor A3 = molecular target: T2, Adenosine receptor A3 (Homo sapiens, UniProt P0DMS8)
T2 sequence (P0DMS8 whole entry): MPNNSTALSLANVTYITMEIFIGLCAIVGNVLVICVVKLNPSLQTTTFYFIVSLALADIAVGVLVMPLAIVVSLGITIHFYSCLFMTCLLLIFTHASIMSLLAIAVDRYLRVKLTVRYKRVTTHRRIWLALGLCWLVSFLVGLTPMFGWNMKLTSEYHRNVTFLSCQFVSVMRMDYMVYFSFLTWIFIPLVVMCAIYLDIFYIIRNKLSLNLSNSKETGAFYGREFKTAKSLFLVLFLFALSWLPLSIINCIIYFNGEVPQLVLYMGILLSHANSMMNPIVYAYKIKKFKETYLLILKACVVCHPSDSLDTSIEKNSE

Adenosine receptor A1 = Adenosine receptor A1 (Homo sapiens, UniProt P30542)
Translocator protein = Translocator protein (Homo sapiens, UniProt P30536)
D(1A) dopamine receptor = D(1A) dopamine receptor (Homo sapiens, UniProt P21728)
D(1B) dopamine receptor = D(1B) dopamine receptor (Homo sapiens, UniProt P21918)
[2] = molecular target: Melatonin receptor type 1A (Homo sapiens, UniProt P48039)
[3] = molecular target: Sodium-dependent noradrenaline transporter (Homo sapiens, UniProt P23975)
Vasopressin V1a receptor = Vasopressin V1a receptor (Homo sapiens, UniProt P37288)
[4] = molecular target: T3, Adrenergic receptor alpha-1 (Homo sapiens, UniProt P35348+P25100+P35368); type: protein assay
T3 sequence (P35348 whole entry): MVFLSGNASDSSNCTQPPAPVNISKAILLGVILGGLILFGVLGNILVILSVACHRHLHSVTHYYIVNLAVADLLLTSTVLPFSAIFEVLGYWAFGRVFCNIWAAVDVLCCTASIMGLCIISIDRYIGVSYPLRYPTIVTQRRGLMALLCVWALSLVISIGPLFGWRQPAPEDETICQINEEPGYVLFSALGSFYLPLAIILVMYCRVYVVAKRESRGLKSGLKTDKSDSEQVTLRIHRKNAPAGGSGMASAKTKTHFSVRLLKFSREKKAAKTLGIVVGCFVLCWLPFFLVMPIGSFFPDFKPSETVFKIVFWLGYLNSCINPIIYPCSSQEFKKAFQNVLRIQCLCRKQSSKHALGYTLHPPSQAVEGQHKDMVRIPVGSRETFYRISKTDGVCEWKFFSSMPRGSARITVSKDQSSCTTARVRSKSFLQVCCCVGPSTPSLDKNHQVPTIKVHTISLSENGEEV
T3 sequence (P25100 whole entry): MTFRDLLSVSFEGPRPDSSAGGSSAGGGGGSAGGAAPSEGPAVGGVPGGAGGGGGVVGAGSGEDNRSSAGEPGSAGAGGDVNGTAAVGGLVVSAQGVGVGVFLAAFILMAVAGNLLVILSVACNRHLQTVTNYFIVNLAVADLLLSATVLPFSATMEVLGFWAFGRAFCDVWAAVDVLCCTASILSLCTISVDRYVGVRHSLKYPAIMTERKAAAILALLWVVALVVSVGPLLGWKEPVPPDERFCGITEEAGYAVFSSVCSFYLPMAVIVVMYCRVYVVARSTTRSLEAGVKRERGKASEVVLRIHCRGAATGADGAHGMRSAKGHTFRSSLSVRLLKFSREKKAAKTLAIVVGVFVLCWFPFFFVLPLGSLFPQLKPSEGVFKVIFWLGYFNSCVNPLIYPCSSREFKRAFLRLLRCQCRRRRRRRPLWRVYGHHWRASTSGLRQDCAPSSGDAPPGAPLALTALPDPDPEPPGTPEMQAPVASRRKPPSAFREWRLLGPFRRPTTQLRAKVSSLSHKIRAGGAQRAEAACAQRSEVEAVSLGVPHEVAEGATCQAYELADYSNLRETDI
T3 sequence (P35368 whole entry): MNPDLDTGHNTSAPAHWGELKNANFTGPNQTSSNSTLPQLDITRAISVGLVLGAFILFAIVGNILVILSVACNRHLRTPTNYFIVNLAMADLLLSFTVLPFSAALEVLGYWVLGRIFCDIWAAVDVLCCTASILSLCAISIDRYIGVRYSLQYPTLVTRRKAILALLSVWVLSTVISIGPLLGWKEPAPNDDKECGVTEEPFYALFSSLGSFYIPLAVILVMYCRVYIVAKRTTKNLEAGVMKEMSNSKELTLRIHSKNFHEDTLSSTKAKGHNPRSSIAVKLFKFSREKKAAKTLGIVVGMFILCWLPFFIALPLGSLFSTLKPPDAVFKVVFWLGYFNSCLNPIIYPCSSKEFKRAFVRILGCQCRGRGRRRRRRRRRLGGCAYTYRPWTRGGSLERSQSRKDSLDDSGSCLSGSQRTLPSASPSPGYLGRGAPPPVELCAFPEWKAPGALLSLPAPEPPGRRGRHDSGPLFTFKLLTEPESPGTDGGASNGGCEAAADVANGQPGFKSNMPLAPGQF

Substance-K receptor = Substance-K receptor (Homo sapiens, UniProt P21452)
[5] = molecular target: 5-hydroxytryptamine receptor 1B (Homo sapiens, UniProt P28222)
Chain of 5-hydroxytryptamine receptor 1B (P28222 whole entry): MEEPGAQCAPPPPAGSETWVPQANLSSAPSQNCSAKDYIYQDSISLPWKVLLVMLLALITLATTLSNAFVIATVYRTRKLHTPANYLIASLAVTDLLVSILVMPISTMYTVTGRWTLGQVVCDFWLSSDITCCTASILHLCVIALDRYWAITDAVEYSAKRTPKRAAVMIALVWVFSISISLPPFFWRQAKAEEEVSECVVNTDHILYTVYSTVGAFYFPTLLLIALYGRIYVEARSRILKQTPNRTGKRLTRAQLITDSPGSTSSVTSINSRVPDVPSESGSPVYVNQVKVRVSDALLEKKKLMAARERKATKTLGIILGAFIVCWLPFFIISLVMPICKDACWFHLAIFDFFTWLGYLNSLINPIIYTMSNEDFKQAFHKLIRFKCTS

Chain of Translocator protein (P30536 whole entry): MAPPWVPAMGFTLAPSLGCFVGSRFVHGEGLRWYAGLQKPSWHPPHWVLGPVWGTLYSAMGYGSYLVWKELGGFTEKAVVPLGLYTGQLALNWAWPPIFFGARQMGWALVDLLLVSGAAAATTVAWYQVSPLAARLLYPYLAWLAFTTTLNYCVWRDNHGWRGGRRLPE
Chain of D(1A) dopamine receptor (P21728 whole entry): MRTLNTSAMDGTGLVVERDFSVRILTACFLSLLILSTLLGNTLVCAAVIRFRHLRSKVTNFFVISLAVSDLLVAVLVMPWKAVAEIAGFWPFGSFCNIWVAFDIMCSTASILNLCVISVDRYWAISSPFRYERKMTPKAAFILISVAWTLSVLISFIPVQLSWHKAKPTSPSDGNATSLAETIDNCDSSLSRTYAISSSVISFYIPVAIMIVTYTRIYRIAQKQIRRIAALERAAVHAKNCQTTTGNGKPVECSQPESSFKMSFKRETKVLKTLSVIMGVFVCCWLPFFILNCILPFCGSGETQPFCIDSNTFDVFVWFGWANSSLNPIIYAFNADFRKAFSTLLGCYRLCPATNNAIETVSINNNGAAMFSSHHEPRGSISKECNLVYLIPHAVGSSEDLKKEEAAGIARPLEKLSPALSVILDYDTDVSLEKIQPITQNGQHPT
Chain of Vasopressin V1a receptor (P37288 whole entry): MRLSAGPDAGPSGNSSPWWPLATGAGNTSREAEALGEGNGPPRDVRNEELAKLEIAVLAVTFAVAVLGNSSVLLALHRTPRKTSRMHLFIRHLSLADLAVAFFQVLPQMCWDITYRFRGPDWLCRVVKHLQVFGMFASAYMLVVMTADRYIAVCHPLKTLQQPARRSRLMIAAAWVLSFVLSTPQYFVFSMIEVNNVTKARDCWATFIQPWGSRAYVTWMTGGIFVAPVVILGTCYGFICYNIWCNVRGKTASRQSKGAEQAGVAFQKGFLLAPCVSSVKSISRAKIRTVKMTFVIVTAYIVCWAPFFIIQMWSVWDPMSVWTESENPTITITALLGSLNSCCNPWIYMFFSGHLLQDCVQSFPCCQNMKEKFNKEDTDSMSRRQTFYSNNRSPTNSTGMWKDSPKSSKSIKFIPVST
Chain of Adenosine receptor A1 (P30542 whole entry): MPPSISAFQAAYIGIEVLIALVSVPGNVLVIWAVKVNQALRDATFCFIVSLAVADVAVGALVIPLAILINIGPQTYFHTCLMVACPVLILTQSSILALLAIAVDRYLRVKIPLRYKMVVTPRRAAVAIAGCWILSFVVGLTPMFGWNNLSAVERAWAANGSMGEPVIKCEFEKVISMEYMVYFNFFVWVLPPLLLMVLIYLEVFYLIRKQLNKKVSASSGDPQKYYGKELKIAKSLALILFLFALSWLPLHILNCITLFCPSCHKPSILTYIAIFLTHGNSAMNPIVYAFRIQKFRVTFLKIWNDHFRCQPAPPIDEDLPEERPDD
Chain of Substance-K receptor (P21452 whole entry): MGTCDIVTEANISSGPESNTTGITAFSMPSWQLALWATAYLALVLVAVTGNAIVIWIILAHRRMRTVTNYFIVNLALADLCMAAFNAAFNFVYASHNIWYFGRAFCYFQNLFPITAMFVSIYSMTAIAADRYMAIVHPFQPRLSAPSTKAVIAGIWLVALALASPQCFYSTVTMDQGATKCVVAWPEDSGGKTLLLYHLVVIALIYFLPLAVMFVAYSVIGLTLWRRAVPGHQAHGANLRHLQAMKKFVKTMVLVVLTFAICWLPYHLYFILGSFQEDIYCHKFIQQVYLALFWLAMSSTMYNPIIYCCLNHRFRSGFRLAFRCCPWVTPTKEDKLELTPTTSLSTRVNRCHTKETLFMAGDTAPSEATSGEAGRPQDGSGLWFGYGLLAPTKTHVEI
Chain of Sodium-dependent noradrenaline transporter (P23975 whole entry): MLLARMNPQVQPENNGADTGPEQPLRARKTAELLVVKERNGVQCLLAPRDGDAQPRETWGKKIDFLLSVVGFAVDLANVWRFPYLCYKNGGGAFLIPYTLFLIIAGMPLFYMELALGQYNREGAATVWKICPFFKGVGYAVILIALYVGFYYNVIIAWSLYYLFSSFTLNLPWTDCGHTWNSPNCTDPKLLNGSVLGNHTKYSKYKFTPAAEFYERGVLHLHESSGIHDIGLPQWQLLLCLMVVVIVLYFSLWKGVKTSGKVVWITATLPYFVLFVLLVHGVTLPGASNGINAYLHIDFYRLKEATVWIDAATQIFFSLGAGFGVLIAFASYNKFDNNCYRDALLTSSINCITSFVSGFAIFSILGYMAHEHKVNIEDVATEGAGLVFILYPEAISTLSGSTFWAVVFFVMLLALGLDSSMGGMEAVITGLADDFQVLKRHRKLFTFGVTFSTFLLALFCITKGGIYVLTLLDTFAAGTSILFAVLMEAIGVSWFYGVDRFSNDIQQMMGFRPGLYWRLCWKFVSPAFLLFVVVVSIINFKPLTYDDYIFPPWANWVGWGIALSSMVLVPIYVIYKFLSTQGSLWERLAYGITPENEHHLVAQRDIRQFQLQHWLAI
Chain of Melatonin receptor type 1A (P48039 whole entry): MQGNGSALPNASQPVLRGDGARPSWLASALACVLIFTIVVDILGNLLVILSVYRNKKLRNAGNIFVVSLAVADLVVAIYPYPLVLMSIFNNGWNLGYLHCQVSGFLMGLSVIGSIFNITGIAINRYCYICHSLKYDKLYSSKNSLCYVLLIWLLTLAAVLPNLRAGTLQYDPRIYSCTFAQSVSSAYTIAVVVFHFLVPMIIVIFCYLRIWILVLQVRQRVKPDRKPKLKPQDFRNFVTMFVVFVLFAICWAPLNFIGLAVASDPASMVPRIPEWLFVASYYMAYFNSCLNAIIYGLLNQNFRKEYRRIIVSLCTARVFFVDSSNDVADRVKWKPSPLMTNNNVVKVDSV
Chain of D(1B) dopamine receptor (P21918 whole entry): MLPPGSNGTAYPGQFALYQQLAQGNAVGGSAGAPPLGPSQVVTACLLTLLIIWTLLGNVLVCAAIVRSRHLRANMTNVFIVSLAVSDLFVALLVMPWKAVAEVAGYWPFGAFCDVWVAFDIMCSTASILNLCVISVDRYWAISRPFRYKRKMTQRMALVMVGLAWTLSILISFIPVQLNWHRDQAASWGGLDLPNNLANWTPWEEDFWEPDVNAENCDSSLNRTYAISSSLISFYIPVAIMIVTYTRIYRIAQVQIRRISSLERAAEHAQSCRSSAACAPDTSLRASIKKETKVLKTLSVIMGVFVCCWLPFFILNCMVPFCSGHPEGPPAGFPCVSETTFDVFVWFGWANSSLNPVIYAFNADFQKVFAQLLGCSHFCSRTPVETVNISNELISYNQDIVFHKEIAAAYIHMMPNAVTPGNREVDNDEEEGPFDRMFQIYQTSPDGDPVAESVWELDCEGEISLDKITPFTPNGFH

`O=C(OCc1cc2c(cc1Cl)OCO2)N1CCC(n2c(O)nc3ccccc32)CC1` showed an IC50 [1] of 4650 nM, an IC50 (Adenosine receptor A3) of 1780 nM and an IC50 (Adenosine receptor A1) of 2640 nM. The IC50 (Translocator protein) was 1040 nM, the IC50 (D(1A) dopamine receptor) was 7580 nM and the IC50 (D(1B) dopamine receptor) was 4890 nM. The IC50 [2] was 1740 nM, the IC50 [3] was 3020 nM and the IC50 (Vasopressin V1a receptor) was 2220 nM. For the same molecule, the IC50 [4] was 1340 nM, the IC50 (Substance-K receptor) was 4420 nM and the IC50 [5] was 708 nM.
